pIC50: −log10 of the molar value. Where two headings read alike, the source gives them in different places.

Assay [1] deals with T1, CDK12 (Homo sapiens, UniProt Q9NYV4). The experiment in a line: CDK12 kinase inhibitory activity assay (33P-ATP filter binding). It counts as biochemical. On the procedure: (§1) Before initiating the CDK12 and CDK13 kinase reactions, each Example compound was dissolved and diluted in DMSO as a solvent across 9 concentration ranges at room temperature. The diluted solutions were then incubated with a mixture of kinase and substrate (and cofactors, if required) for 20 minutes. Next, radioisotope-labeled ATP (^33P-gamma-ATP) was added to proceed with the kinase reaction at room temperature for 120 minutes. After the reaction was completed, the reaction mixture was transferred to a filter paper that binds the radioisotope-labeled catalytic product (^33P-substrate). Unreacted ^33P-ATP was removed by washing with 0.75 % phosphoric acid, and then the radioactive phosphorylated substrate remaining on the filter paper was measured. Kinase activity data were expressed as a percentage of the kinase activity remaining in the test sample compared to a DMSO control group. The half-maximal inhibitory concentration (IC50) for each kinase was calculated using Prism (Graphpad) software.
T1 sequence (Q9NYV4 whole entry, species assumed): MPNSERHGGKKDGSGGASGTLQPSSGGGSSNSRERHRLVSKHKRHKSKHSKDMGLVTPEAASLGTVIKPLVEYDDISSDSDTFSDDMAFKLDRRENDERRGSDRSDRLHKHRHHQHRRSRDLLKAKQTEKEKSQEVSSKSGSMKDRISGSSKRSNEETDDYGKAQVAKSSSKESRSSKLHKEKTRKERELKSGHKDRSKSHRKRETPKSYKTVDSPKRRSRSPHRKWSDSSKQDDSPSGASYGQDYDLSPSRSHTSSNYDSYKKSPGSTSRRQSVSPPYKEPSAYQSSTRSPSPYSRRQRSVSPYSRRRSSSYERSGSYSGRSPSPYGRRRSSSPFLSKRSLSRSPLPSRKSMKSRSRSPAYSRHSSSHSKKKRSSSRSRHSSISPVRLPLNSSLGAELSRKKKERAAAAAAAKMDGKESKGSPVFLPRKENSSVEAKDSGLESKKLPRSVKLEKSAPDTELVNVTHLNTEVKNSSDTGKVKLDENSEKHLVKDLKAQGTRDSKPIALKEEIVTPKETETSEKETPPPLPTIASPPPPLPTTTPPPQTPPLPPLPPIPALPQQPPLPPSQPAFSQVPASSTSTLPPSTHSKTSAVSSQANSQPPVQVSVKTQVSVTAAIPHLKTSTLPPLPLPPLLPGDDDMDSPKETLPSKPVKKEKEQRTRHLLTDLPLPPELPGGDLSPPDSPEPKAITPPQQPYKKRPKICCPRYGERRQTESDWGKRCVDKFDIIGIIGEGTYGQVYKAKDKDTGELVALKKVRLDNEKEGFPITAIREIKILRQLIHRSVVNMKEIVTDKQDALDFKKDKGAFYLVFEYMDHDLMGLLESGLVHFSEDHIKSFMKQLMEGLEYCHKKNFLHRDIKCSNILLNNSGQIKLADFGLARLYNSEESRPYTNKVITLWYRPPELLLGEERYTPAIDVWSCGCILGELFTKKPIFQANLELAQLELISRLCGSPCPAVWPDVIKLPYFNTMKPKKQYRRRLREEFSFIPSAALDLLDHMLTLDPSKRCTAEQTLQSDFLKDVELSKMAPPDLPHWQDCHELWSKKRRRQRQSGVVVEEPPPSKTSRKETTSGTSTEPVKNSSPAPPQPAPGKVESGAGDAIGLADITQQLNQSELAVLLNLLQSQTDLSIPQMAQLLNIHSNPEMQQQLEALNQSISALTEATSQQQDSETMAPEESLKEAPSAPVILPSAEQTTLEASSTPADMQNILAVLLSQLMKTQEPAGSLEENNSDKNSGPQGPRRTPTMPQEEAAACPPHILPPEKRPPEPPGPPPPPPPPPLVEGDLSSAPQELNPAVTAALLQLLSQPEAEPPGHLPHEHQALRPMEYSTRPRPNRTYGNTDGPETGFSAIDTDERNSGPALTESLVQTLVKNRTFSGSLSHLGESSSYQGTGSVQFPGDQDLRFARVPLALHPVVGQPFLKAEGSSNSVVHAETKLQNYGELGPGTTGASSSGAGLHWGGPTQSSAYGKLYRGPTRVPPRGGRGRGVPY
T1 sequence (O75909 whole entry partner, species assumed): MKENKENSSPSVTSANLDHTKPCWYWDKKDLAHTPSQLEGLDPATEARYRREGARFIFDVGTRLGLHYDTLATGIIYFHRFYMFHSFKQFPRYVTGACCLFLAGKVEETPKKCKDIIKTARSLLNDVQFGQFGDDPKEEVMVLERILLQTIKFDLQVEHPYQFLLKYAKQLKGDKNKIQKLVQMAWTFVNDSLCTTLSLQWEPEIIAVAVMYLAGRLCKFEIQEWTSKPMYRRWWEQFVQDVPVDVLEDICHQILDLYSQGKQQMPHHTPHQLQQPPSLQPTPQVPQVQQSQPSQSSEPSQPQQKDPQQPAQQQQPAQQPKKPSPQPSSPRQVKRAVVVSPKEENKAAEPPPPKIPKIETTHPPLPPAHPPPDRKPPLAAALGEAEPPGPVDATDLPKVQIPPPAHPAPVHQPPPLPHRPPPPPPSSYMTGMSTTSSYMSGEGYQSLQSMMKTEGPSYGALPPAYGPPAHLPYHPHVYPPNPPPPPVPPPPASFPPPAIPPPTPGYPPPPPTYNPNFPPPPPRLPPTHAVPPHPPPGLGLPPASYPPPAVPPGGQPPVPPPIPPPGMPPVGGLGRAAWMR

A further assay has as its target CDK13 (Homo sapiens, UniProt Q14004). Briefly: CDK13 kinase inhibitory activity assay (33P-ATP filter binding). The class given is biochemical. On the procedure: as §1
Assay [2] has as its system MDA-MB-231 breast cancer cells. Briefly: Proliferation inhibitory activity assay against MDA-MB-231 breast cancer cells. The class given is cell-based. As to conditions: Homo sapiens, 72 hours, CellTiter Glo, relative IC50. On the procedure: Experiments were performed using the MDA-MB-231 breast cancer cell line to measure the cell proliferation inhibitory ability of each Example compound. MDA-MB-231 cells were dispensed into a 96-well plate at 100 µL of cell suspension per well using L-15 (Invitrogen) medium containing 10 % FBS, followed by incubation in a cell incubator at 37 °C and 0 % CO2. The next day, each Example compound dissolved and diluted in DMSO across 9 concentration ranges and a DMSO control group were treated on the cells for 72 hours. After the compound treatment was completed, 100 µL of CellTiter Glo (Promega) reagent was added to each well of the 96-well plate, followed by shaking for 10 minutes and standing at room temperature for 10 minutes. Luminescence signals were measured after inserting the 96-well plate into an Envision plate reader (PerkinElmer). Relative IC50 values were calculated by fitting a dose-response curve using XLfit (IDBS Ltd) software.
The breast cancer cell proliferation inhibitory activities of the Example compounds measured by the above method were evaluated according to the following criteria, and the results are presented in Table 13.

The target in assay [3] is T1, CDK12. The experiment in a line: Cellular CDK12 inhibitory activity assay (Ser2 phosphorylation of RNA polymerase II subunit B1 CTD in MDA-MB-231 cells). The class given is cell-based. Also on record: using MDA-MB-231 breast cancer cells; endogenous in cells; host or cells: MDA-MB-231. As to conditions: MDA-MB-231 cells, 6 hours treatment; read-out: pRpbl CTD S2 IC50. On the procedure: MDA-MB-231 cells were dispensed into a 96-well plate at 100 µL of cell suspension per well using L-15 (Invitrogen) medium containing 10 % FBS, followed by overnight incubation in a cell incubator at 37 °C and 0 % CO2. The next day, each Example compound dissolved in DMSO across 9 concentration ranges and a DMSO control group were treated on the MDA-MB-231 cells at 37 °C and 0 % CO2 for 6 hours. After the compound treatment, the medium in the 96-well plate was removed, and 60 µL of a fixing solution (4.0 % paraformaldehyde in PBS) was added to each well, followed by standing for 20 minutes. After removing the fixing solution and washing with PBS, 60 µL of PBS containing 0.1 % Triton X-100 was dispensed into each well, followed by shaking at room temperature for 15 minutes. After washing with PBS, 100 µL of blocking buffer was added, followed by shaking at room temperature for 1 hour. After removing the blocking buffer, primary antibodies, which are RNA polymerase II subunit B1 phospho-Ser2 (1:500, Cell signaling technology) and RNA polymerase II subunit B1 carboxy-terminal domain (1:200, Cell signaling technology), were added at 60 µL per well and reacted overnight at 4 °C. After adding 150 µL of PBS containing 0.1 % Triton X-100 and washing at least twice by shaking at room temperature for 5 minutes, 60 µL of a secondary antibody was added, followed by shaking at room temperature for 1 hour while blocking light. After adding 150 µL of PBS containing 0.1 % Triton X-100 and washing at least twice by shaking at room temperature for 5 minutes, 150 µL of PBS was added again, followed by washing at least twice by shaking at room temperature for 5 minutes. The plate was scanned using a Li-COR Odyssey machine with the wells filled with PBS. IC50 values were calculated by fitting a dose-response curve using a 4-parameter model of Prism (Graphpad) software.

The mark [4] stands for this setting: kinase reaction 120 minutes, 33P-gamma-ATP, read-out: CDK12 IC50.
[5] abbreviates: kinase reaction 120 minutes, 33P-gamma-ATP, read-out: CDK13 IC50.

Chain of CDK13 (Q14004 whole entry, species assumed): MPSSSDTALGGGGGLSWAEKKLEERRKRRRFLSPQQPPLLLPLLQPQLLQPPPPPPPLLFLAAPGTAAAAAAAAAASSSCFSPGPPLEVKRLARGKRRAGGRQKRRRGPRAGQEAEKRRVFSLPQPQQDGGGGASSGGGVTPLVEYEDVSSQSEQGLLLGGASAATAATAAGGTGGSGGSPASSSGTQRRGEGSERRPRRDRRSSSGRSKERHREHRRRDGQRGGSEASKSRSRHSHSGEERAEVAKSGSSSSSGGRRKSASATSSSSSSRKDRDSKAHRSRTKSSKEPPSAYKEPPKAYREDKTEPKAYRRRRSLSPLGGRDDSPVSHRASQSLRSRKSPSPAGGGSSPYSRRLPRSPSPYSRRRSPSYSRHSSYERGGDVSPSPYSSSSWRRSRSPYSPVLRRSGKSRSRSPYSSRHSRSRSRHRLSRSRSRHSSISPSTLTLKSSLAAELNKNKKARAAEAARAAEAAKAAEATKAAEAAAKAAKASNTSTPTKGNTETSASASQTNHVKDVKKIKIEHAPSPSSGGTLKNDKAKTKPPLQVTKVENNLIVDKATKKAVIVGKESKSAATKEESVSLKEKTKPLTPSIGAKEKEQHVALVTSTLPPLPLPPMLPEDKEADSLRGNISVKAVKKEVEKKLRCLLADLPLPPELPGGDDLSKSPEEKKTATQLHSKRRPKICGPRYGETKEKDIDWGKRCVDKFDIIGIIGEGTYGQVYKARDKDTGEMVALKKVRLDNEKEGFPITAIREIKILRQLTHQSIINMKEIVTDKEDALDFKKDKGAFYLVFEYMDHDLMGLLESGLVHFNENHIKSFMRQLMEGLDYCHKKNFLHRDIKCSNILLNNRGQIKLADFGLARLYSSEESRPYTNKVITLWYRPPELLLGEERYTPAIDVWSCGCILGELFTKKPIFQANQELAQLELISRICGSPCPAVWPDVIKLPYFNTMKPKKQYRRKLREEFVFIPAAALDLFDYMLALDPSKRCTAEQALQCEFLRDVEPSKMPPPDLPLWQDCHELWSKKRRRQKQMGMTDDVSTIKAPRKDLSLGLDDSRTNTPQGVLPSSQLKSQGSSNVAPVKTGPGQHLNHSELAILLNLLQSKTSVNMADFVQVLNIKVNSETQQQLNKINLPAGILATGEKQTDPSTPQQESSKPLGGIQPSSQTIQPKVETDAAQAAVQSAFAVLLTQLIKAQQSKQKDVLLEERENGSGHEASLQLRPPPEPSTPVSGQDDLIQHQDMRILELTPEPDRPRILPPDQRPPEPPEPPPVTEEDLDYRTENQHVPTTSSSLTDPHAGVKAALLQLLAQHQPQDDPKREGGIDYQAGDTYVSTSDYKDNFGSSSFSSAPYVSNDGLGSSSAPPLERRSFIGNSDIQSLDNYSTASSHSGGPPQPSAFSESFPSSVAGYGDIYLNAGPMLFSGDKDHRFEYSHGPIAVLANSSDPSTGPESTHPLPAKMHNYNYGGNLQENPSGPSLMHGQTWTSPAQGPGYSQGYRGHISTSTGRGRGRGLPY
Chain of CDK13 (O75909 whole entry partner, species assumed): as the sequence (O75909 whole entry partner, species assumed) above

On to `CC1(O)CN(c2cc(NCc3nc4cc(Cl)c(Cl)cc4[nH]3)c3ncc(C(F)(F)F)n3n2)C1` [Example 52, 1-(8-(((5,6-dichloro-1H-benzo[d]imidazol-2-yl)methyl)amino)-3-(trifluoromethyl)imidazo[1,2-b]pyridazin-6-yl)-3-methylazetidin-3-ol], for which the pIC50 at CDK12 [1] (setting [4]) was 6.30 to 7.00; at CDK13 (setting [5]), over 7.00; in assay [2], at least 7.30; at CDK12 [3], over 6.52.
In the case of `Fc1ccc2nc(CNc3cc(N4CCOCC4)nn4c(Cl)cnc34)[nH]c2c1F` [Example 27, 3-chloro-N-((6,7-difluoro-1H-benzo[d]imidazol-2-yl)methyl)-6-morpholinoimidazo[1,2-b]pyridazin-8-amine], the pIC50 at CDK12 [1] was under 6.30; at CDK13 (setting [5]), under 6.30; in assay [2], under 6.30; on CDK12 [3], under 5.52.
In the case of `Cc1cc2[nH]c(CNc3cc(N4CCOCC4)nn4c(C(F)(F)F)cnc34)nc2cc1C(F)(F)F` [Example 80, N-((6-methyl-5-(trifluoromethyl)-1H-benzo[d]imidazol-2-yl)methyl)-6-morpholino-3-(trifluoromethyl)imidazo[1,2-b]pyridazin-8-amine], the pIC50 is over 7.00 on CDK12 [1] (setting [4]), over 7.00 on CDK13 (setting [5]), at least 7.30 in assay [2] and over 6.52 at CDK12 [3].
For `FC(F)(F)c1cnc2c(NCc3cn4ccccc4n3)cc(N3CCOCC3)nn12` [Example 82, N-(imidazo[1,2-a]pyridin-2-ylmethyl)-6-morpholino-3-(trifluoromethyl)imidazo[1,2-b]pyridazin-8-amine], the pIC50 at CDK12 [1] (setting [4]) is over 7.00; at CDK13, over 7.00; in assay [2] it was 6.30 to 7.30; at CDK12 [3], 5.52 to 6.52.
Take `Nc1ncc(-c2cc(NCc3nc4ccc(F)c(F)c4[nH]3)c3ncc(C#CC4CC4)n3n2)cn1` [Example 21, 6-(2-aminopyrimidin-5-yl)-3-(cyclopropylethynyl)-N-((6,7-difluoro-1H-benzo[d]imidazol-2-yl)methyl)imidazo[1,2-b]pyridazin-8-amine]: the pIC50 at CDK12 [1] (setting [4]) was under 6.30; on CDK13 (setting [5]) it was under 6.30; in assay [2] it was under 6.30; on CDK12 [3], under 5.52.
In the case of `O=C(CO)NC1CN(c2cc(NCc3nc4cc(Cl)c(Cl)cc4[nH]3)c3ncc(C(F)(F)F)n3n2)C1` [Example 103, N-(1-(8-(((5,6-dichloro-1H-benzo[d]imidazol-2-yl)methyl)amino)-3-(trifluoromethyl)imidazo[1,2-b]pyridazin-6-yl)azetidin-3-yl)-2-hydroxyacetamide], the pIC50 is over 7.00 on CDK12 [1] (setting [4]), over 7.00 on CDK13 (setting [5]), 6.30 to 7.30 in assay [2] and 5.52 to 6.52 at CDK12 [3].
Regarding `N[C@@H]1CCN(c2cc(NCc3nc4ccc(F)c(F)c4[nH]3)c3ncc(C(F)(F)F)n3n2)C1` [Example 37], the pIC50 on CDK12 [1] (setting [4]) was over 7.00; on CDK13 (setting [5]), over 7.00; in assay [2], at least 7.30; at CDK12 [3], over 6.52.
Turning to `Cc1cc2[nH]c(CNc3cc(N4CCOCC4)nn4c(C(F)(F)F)cnc34)nc2cc1Cl` [Example 79, N-((5-chloro-6-methyl-1H-benzo[d]imidazol-2-yl)methyl)-6-morpholino-3-(trifluoromethyl)imidazo[1,2-b]pyridazin-8-amine], the pIC50 was over 7.00 at CDK12 [1] (setting [4]), over 7.00 at CDK13 (setting [5]), at least 7.30 in assay [2] and over 6.52 on CDK12 [3].
On to `Fc1ccc2nc(CNc3cc(N4CC5CCC4CO5)nn4c(C(F)(F)F)cnc34)[nH]c2c1F` (stereo not drawn) [Example 12], for which the pIC50 at CDK12 [1] is over 7.00; on CDK13 (setting [5]) it was over 7.00; in assay [2], at least 7.30; on CDK12 [3], over 6.52.
As for `CC#Cc1cnc2c(NCc3nc4ccc(F)c(F)c4[nH]3)cc(N3CCOCC3)nn12` [Example 24, N-((6,7-difluoro-1H-benzo[d]imidazol-2-yl)methyl)-6-morpholino-3-(prop-1-yn-1-yl)imidazo[1,2-b]pyridazin-8-amine], the pIC50 at CDK12 [1] (setting [4]) is under 6.30; at CDK13 (setting [5]), 6.30 to 7.00; in assay [2] it was under 6.30; on CDK12 [3] it was under 5.52.
As to `CN1CC2CC(C1)N2c1cc(NCc2nc3cc(Cl)c(Cl)cc3[nH]2)c2ncc(C(F)(F)F)n2n1` [Example 100, N-((5,6-dichloro-1H-benzo[d]imidazol-2-yl)methyl)-6-(3-methyl-3,6-diazabicyclo[3.1.1]heptan-6-yl)-3-(trifluoromethyl)imidazo[1,2-b]pyridazin-8-amine], the pIC50 is over 7.00 at CDK12 [1] (setting [4]), over 7.00 at CDK13 (setting [5]), at least 7.30 in assay [2] and over 6.52 at CDK12 [3].
Turning to `FC(F)(F)c1cnc2c(NCc3nc4cc(Cl)c(Cl)cc4[nH]3)cc(N3CC4CC(C3)N4)nn12` [Example 97, 6-(3,6-diazabicyclo[3.1.1]heptan-3-yl)-N-((5,6-dichloro-1H-benzo[d]imidazol-2-yl)methyl)-3-(trifluoromethyl)imidazo[1,2-b]pyridazin-8-amine], the pIC50 at CDK12 [1] (setting [4]) is over 7.00; on CDK13 (setting [5]), over 7.00; in assay [2], at least 7.30; on CDK12 [3], over 6.52.
For the compound `CC(=O)N1CCN(c2cc(NCc3nc4cc(Cl)c(Cl)cc4[nH]3)c3ncc(C(F)(F)F)n3n2)CC1` [Example 51, 1-(4-(8-(((5,6-dichloro-1H-benzo[d]imidazol-2-yl)methyl)amino)-3-(trifluoromethyl)imidazo[1,2-b]pyridazin-6-yl)piperazin-1-yl)ethan-1-one], the negative-log IC50 (pIC50) at CDK12 [1] (setting [4]) is over 7.00; on CDK13 (setting [5]), over 7.00; in assay [2] it was at least 7.30; on CDK12 [3], over 6.52.
Take `FC(F)(F)c1cnc2c(NCc3nc4cc(Cl)c(Cl)cc4[nH]3)cc(N3CC4CCC(C3)N4)nn12` [Example 94, 6-(3,8-diazabicyclo[3.2.1]octan-3-yl)-N-((5,6-dichloro-1H-benzo[d]imidazol-2-yl)methyl)-3-(trifluoromethyl)imidazo[1,2-b]pyridazin-8-amine]: the pIC50 on CDK12 [1] (setting [4]) was over 7.00; on CDK13 (setting [5]), over 7.00; in assay [2] it was at least 7.30; at CDK12 [3], over 6.52.
Turning to `N[C@H]1CCN(c2cc(NCc3nc4ccc(F)c(F)c4[nH]3)c3ncc(C(F)(F)F)n3n2)C1` [Example 38], the pIC50 at CDK12 [1] (setting [4]) is over 7.00; on CDK13 (setting [5]), over 7.00; in assay [2] it was at least 7.30; at CDK12 [3] it was over 6.52.
With `FC(F)(F)c1cnc2c(NCc3nc4cc(Cl)c(Cl)cc4[nH]3)cc(N3CC4(CNC4)C3)nn12` [Example 45, N-((5,6-dichloro-1H-benzo[d]imidazol-2-yl)methyl)-6-(2,6-diazaspiro[3.3]heptan-2-yl)-3-(trifluoromethyl)imidazo[1,2-b]pyridazin-8-amine], the pIC50 on CDK12 [1] (setting [4]) was 6.30 to 7.00; at CDK13 (setting [5]), over 7.00; in assay [2], at least 7.30; at CDK12 [3], over 6.52.
For `N#CC1CN(c2cc(NCc3nc4ccc(F)c(F)c4[nH]3)c3ncc(C(F)(F)F)n3n2)C1` [Example 54, 1-(8-(((6,7-difluoro-1H-benzo[d]imidazol-2-yl)methyl)amino)-3-(trifluoromethyl)imidazo[1,2-b]pyridazin-6-yl)azetidine-3-carbonitrile], the pIC50 in assay [2] was 6.30 to 7.30; at CDK12 [3], 5.52 to 6.52.

For the origin of these results see patent EP4813991A1 (iLeadBMS Co., Ltd., priority 2023, dated 2025).
